From paper PMC5996347, “2-Mercapto-Quinazolinones as Inhibitors of Type II NADH Dehydrogenase and Mycobacterium tuberculosis: Structure–Activity Relationships, Mechanism of Action and Absorption, Distribution, Metabolism, and Excretion Characterization” (ACS Infectious Diseases, 2018)
In brackets after ≈: the same amount, converted by molar mass.

What was measured:
[1] = system: M. tuberculosis H37Rv; experiment: H37Rv MIC in GAST medium; type: cell-based, Mycobacterium tuberculosis; settings: Mycobacterium tuberculosis, H37RV; read-out: GAST MIC
[2] = physchem; type: physicochemical; settings: for solubility kinetic: water, kinetic from dmso stock
Procedure: The aqueous solubility of the test compounds was measured using laser nephelometry. Compounds were subject to serial dilution from 10 to 0.5 mM in DMSO. An aliquot was then mixed with Milli-Q water to obtain an aqueous dilution plate with a final concentration range of 250–12 μM, with a final DMSO concentration of 2.5%. Triplicate aliquots were transferred to a flat bottomed polystyrene plate which was immediately read on the NEPHELOstar (BMG Lab Technologies). The amount of laser scatter caused by insoluble particulates (relative nephelometry units, RNU) was plotted against compound concentration using a segmental regression fit, with the point of inflection being quoted as the compounds aqueous solubility (μM).

[3] = system: M. tuberculosis H37Rv; experiment: microbe, parasite or virus in culture; type: cell-based; settings: Mycobacterium tuberculosis, read-out: 7H9-ADC MIC
[4] = type: in vitro ADME; settings: female, CD1, mouse, 0.5 μM, pH 7.4
Procedure: Test compound (0.5 μM) was incubated with female CD1 mouse liver microsomes (Xenotech LLC; 0.5 mg/mL, 50 mM potassium phosphate buffer, pH 7.4), and the reaction started with addition of excess NADPH (8 mg/mL, 50 mM potassium phosphate buffer, pH 7.4). Immediately, at time zero, and then at 3, 6, 9, 15, and 30 min, an aliquot (50 μL) of the incubation mixture was removed and mixed with acetonitrile (100 μL) to stop the reaction. Internal standard was added to all samples; the samples were centrifuged to sediment precipitated protein, and the plates were then sealed prior to UPLC-MS/MS analysis using a Quattro Premier XE (Waters Corporation, USA). XLfit (IDBS, UK) was used to calculate the exponential decay and consequently the rate constant (k) from the ratio of peak area of test compound to internal standard at each time point. The rate of intrinsic clearance (Cli) of each test compound was then calculated using the following calculation. [drawing 1] where V (mL/mg protein) is the incubation volume/mg protein added and microsomal protein yield is taken as 52.5 mg protein/g liver. Verapamil (0.5 μM) was used as a positive control to confirm acceptable assay performance.

SMILES	MIC [1] [µM]	solubility kinetic [2] [µM]	MIC [3] [µM]	Microsomal Cli, mouse [4] [mL/min/g]	Kinetic solubility [2] [µM]
O=C(CSc1nc2ccccc2c(=O)[nH]1)NC1CCCCCC1 [Compound 4, N-Cycloheptyl-2-((4-oxo-3,4-dihydroquinazolin-2-yl)thio)acetamide]	0.3 (≈ 0.0994 µg/mL)	39 (≈ 12.9 µg/mL)	0.6 (≈ 0.199 µg/mL)	6.4	
O=C(CSc1nc2ccccc2c(=O)[nH]1)NC1CCCC1 [Compound 5, N-Cyclopentyl-2-((4-oxo-3,4-dihydroquinazolin-2-yl)thio)acetamide]	1 (≈ 0.303 µg/mL)	101 (≈ 30.6 µg/mL)	1.8 (≈ 0.546 µg/mL)	2.5	
O=C(CSc1nc2ccccc2c(=O)[nH]1)NC1CCC1 [Compound 6, N-Cyclobutyl-2-((4-oxo-3,4-dihydroquinazolin-2-yl)thio)acetamide]	1.6 (≈ 0.463 µg/mL)	219 (≈ 63.4 µg/mL)	1.6 (≈ 0.463 µg/mL)	1.8	
O=C(CSc1nc2ccccc2c(=O)[nH]1)NC1CCCCC1(F)F (stereo not drawn) [Compound 8, N-(2,2-Difluorocyclohexyl)-2-((4-oxo-3,4-dihydroquinazolin-2-yl)thio)acetamide]	9.4 (≈ 3.32 µg/mL)	219 (≈ 77.4 µg/mL)	12.5 (≈ 4.42 µg/mL)	2.3	
O=C(CSc1nc2ccccc2c(=O)[nH]1)NC1CCCC(F)(F)C1 (stereo not drawn) [Compound 9, N-(3,3-Difluorocyclohexyl)-2-((4-oxo-3,4-dihydroquinazolin-2-yl)thio)acetamide]	4.7 (≈ 1.66 µg/mL)	187 (≈ 66.1 µg/mL)	4.7 (≈ 1.66 µg/mL)	2.9	
O=C(CSc1nc2ccccc2c(=O)[nH]1)NCC1CCCCC1 [Compound 10, N-(Cyclohexylmethyl)-2-((4-oxo-3,4-dihydroquinazolin-2-yl)thio)acetamide]	0.2 (≈ 0.0663 µg/mL)		0.3 (≈ 0.0994 µg/mL)	5.9	
CN(C(=O)CSc1nc2ccccc2c(=O)[nH]1)C1CCCCC1 [Compound 14, N-Cyclohexyl-N-methyl-2-((4-oxo-3,4-dihydroquinazolin-2-yl)thio)acetamide]	50 (≈ 16.6 µg/mL)		50 (≈ 16.6 µg/mL)	13	250
CC(Sc1nc2ccccc2c(=O)[nH]1)C(=O)NC1CCCCC1 (stereo not drawn) [Compound 15, N-Cyclohexyl-2-((4-oxo-3,4-dihydroquinazolin-2-yl)thio)propanamide]	50 (≈ 16.6 µg/mL)		50 (≈ 16.6 µg/mL)	7.5	250
CC(Sc1nc2ccccc2c(=O)[nH]1)C(=O)N(C)C1CCCCC1 (stereo not drawn) [Compound 16, N-Cyclohexyl-N-methyl-2-((4-oxo-3,4-dihydroquinazolin-2-yl)thio)propanamide]	50 (≈ 17.3 µg/mL)	250 (≈ 86.4 µg/mL)	50 (≈ 17.3 µg/mL)	50	
O=C(CNc1nc2ccccc2c(=O)[nH]1)NC1CCCCC1 [Compound 17, N-Cyclohexyl-2-((4-oxo-3,4-dihydroquinazolin-2-yl)amino)acetamide]	50 (≈ 15 µg/mL)	250 (≈ 75.1 µg/mL)	50 (≈ 15 µg/mL)	2.1	
O=C(COc1nc2ccccc2c(=O)[nH]1)NC1CCCCC1 [Compound 18, N-Cyclohexyl-2-((4-oxo-3,4-dihydroquinazolin-2-yl)oxy)acetamide]	25 (≈ 7.53 µg/mL)		50 (≈ 15.1 µg/mL)		
Cn1c(SCC(=O)NC2CCCCC2)nc2ccccc2c1=O [Compound 20, N-Cyclohexyl-2-((3-methyl-4-oxo-3,4-dihydroquinazolin-2-yl)thio)acetamide]	50 (≈ 16.6 µg/mL)		50 (≈ 16.6 µg/mL)	11	
O=C(CSc1ncc2ccccc2n1)NC1CCCCC1 [Compound 21, N-Cyclohexyl-2-(quinazolin-2-ylthio)acetamide]	50 (≈ 15.1 µg/mL)		50 (≈ 15.1 µg/mL)		
Nc1nc(SCC(=O)NC2CCCCC2)nc2ccccc12 [Compound 22, 2-((4-Aminoquinazolin-2-yl)thio)-N-cyclohexylacetamide]	50 (≈ 15.8 µg/mL)		50 (≈ 15.8 µg/mL)		
